A word on the viability: it is a per cent measure of how many cells are alive, often set against a control.

Counter-ions that a name gives are not always drawn. Like-named read-outs stand apart in the source and are kept apart here.

These results are taken from patent US20120034296A1 (priority 2009, published 2012).

In data set [1] the test system is Gadd45a, ATF3, SmagP, Cacna2d1. The following applies: rat, in vivo.

Regarding `CN(C)CCC=C1c2ccccc2CCc2ccccc21` [amitriptyline], the “expression of Gadd45a, ATF3, SmagP, Cacna2d1 in dorsal root ganglia” value in data set [1] is “dramatically upregulated”.

Take `CCCCN1CCCCC1C(=O)Nc1c(C)cccc1C` (stereo not shown) [bupivacaine solution, bupivacaine hydrochloride]: the myotoxicity result with C2C12 cells is “increased with concentration and duration of exposure”. The neurotoxicity / cytotoxicity result with PC12 cells was “increased with concentration and duration of exposure”.

Turning to `C[C@@H]1C[C@H]2[C@@H]3CCC4=CC(=O)C=C[C@]4(C)[C@@]3(F)[C@@H](O)C[C@]2(C)[C@@]1(O)C(=O)CO` [dexamethasone], in the data set with C2C12 cells (mouse), the myotoxicity result is “not myotoxic at up to 2 days”, the survival is reported as 80±5% and the viability was above 90%. This molecule also registered a decrease in survival in the data set with PC12 cells (rat) of 20%.
